Assay results: patent publication US8536171B2, “Method for obtaining 5-amino 2,3-dihydrophthalazine-1,4-dione alkali metal salts and their use in medicine” (Abidopharma PL SP. Z.O.O., priority 2009, dated 2013)
Read-outs that look alike come from different tables or passages of the source.

Columns and labels:
[1] = tested on: model animals with experimentally-induced sepsis; details: 0% for untreated animals
[2] = tested on: rats with experimental myocardial infarction
Description: (§1) The animals of 230 to 258 g were subjected to ether narcosis for 1-3 minutes, Next, by the thoracotomy method there was achieved access to the anterior branch of the coronary artery and its lumen was closed by means of an electrode. The wound was closed by atraumatic sutures. […] The rats were divided in two groups.
(§2) The animals were being observed for 24 hours (every one in a separate cage). […] The second group of 10 rats (5 of each group) were killed after 5 days and the third group of 10 animals (5 of each group)—after 7 days. In all the rats there was performed postmortem macroscopic examination of hearts, pleura and abdominal cavity organs. The tissues were taken from the infarct focus for microscopic examination. They were retained in formalin and stained conventionally with H-E. Blood for biochemical tests was taken by heart puncture of 3 ml volume.

[3] = tested on: patients suffering from diabetes of type I and type II
[4] = tested on: rats with experimentally developed muscles ischemia
[5] = tested on: rats with alloxan diabetes
From the text: The results were presented below in Table 2.
The results of the trials were presented below in Table 3.

[6] = tested on: patients with acute and chronic pancreatitis
[7] = tested on: people after myocardial infarction; details: 15 patients, versus control group
From the text: II-Na salt was applied also for treatment of people after myocardial infarction.

[8] = tested on: psychotic and neurological patients (multiple sclerosis, anxiety, depression); test: Clinical trials in nervous system and psychic diseases; assay type: in vivo, human
From the text: In the psychotic patients in combination with the conventional treatment and in the neurological patients as monotherapy.

[9] = tested on: rats with experimental myocardial infarction; details: for ALT / AST / CPK / LDH1, 2: blood, 5 mg/kg per 24 hours intramuscularly, n = 5
Description: as §1, §2
In the biochemical trials there were estimated levels of creatinine kinase (CPK), lactate dehydrogenase (LDH 1-2), aspargine transaminase (AST) and alanine transaminase (ALT) before the infarct and on 1, 5 and 7 day after the infarct (Apparatus “Immunochemistry System”, Beckman Coulter, “DSL”, “Multiscan”, Labsystem; Glycomat DSS, Drew).

rats with STZ diabetes = test: Rats with diabetes induced by streptozotocin (STZ); assay type: in vivo; details: for glycemia / level of malonic dialdehyde (MDA), oxidation stress marker: in comparison to the group of the STZ untreated rats
[10] = tested on: patients with inflammatory diseases of head, maxillofacial area and neck; details: above 50 patients, various forms and doses
[11] = background statement; cited from earlier work
[12] = blood, alloxan diabetes rats treated with II-Na salt (Table 2)
[13] = blood, alloxan diabetes rats treated with II-Na salt (Table 3)

For Nc1cccc2c(=O)[nH][nH]c(=O)c12.[Na] [II-Na salt, 5-amino-2,3-dihydrophthalazine-1,4-dione sodium salt], the viability of rats [1] was 80%, the “polymorphic-nucleated leucocytes in the demarcation zone” value ([2]; fifth day) was “not observed” and the “postoperative wound healed by first intension (per primam)” value ([2]; fifth day, 4 rats without II-Na salt) was “all 5 rats”. For the same compound, the leucocytes migration ([2]; first 24 hours after the infarct) was “not observed”, the “fibrosis (Weinert's staining)” value ([2]; fourteenth day, 5 mg/kg) was “only few traits of fibrosis” and the polymorphic-nucleated leucocytes ([2]; fourteenth day, 5 mg/kg) was “not observed”. The “regeneration processes of damaged tissues” value ([2]; overall conclusion) was “positive influence on regeneration processes of damaged tissues”, the “capillary vessels in the infarct zone” value ([2]; seventh day) was “normal of the sinusoidal type” and the glycemia level ([3]; after a week of treatment, from 7.5 mmol/l, 100 mg intramuscular injection) was 5.1 mmol/L. The insulin dose ([3]; after a week of treatment, reduced from 45 IU) was 15 IU per day, the cholesterol level ([3]; patients with diabetes of type II) was “slight reduction” and the “Number of capill. in 1 mm^3” value ([4]; Ischaemia-12 days) was 152.3 ± 12.7 in 1 mm^3. For the same compound, the “Number of capill. in 1 mm^3” value ([4]; Ischaemia-29 days) was 236.4 ± 16.9 in 1 mm^3, the IGF-1 ([5]; blood, alloxan diabetes rats treated with II-Na salt) was 699.13 ± 81.4 ng/mL and the IGF-2 [5, 12] was 37.9 ± 1.65 ng/mL. For the same compound, the Insulin [5, 12] was 0.724 ± 0.08 mg/mL, the IGF-2 [5, 13] was 37.9 ± 1.65 ng/mL and the Insulin [5, 13] was 7.24e-07 ± 8e-08 mg/mL. The Glucose ([5]; blood, alloxan diabetes rats treated with II-Na salt, 5 mg per kg per 24 hours for a month, sodium salt) was 4.16 ± 0.56 mmol/L, the “Glycated hemoglobin (Hb A1C)” value ([5]; blood, alloxan diabetes rats treated with II-Na salt, sodium salt) was 9.05 ± 0.58 % and the IGF-1/IGF-2 ([5]; ratio, alloxan diabetes rats treated with II-Na salt) was 16.2 ± 2.4. For the same compound, the “starting formation of pseudocysts” value ([6]; 2 patients, after treatment) was “disappeared”, the septic complications ([6]; 25 patients, conventional therapy plus II-Na salt) was “one patient” and the “normalization of the laboratory tests results” value ([6]; after a month, of 25 patients) was “twenty two patients”. For the same compound, the “patients who could come back to nutrition per os” value ([6]; after three weeks of treatment, of 25 patients) was “twenty patients”, the insulin level ([6]; after two weeks of treatment) was “raised nearly to normal” and the “reduction of the glucose level” value ([6]; after two weeks of treatment) was “two times”. For the same compound, the “reduction Hb1AC” value ([6]; after two weeks of treatment, fifteen patients with reduced insulin level) was “in six patients to the normal range”, the insulin administration ([6]; after two weeks of treatment, from up to 40 IU/day) was 10 IU/day and the “pain disappeared in all patients (time)” value ([6]; control group: above two weeks) was “seven days”. For the same compound, the “pain symptoms reduced in all the patients (time)” value ([6]; day of treatment) was “second day”, the “effects observed in the pancreas” value ([6]; research (rats, 5 mg per kg per 24 hours for a month) and clinical trials) was “inhibition of inflammatory and necrotic processes in the pancreas” and the “pain discomfort in the chest” value ([7]; 100/200 mg per 24 hours intramuscular for seven days plus conventional therapy) was “quicker reduction of pain discomfort in the chest”. The “blood biochemical parameters (CPK, LDH, ALT, AST) and x-ray image” value [7] was “quicker normalization of blood biochemical parameters”, the “lymphocytic profile and cytokines” value ([8]; II-Na salt 100 mg per 24 hours intramuscularly for 30 days) was “normalization of the lymphocytic profile and cytokines” and the disease symptoms ([8]; human, in vivo) was “disease symptoms reduction”. The “preventive use in the period of remission” value ([8]; spring and autumn, 100 mg/d, 10 injections every day and 10 every second day) was “long-time remission”, the ALT ([9]; fifth day after infarct) was 0.271 ± 0.059 µmol/L and the AST ([9]; fifth day after infarct) was 0.204 ± 0.03 µmol/L. The CPK ([9]; fifth day after infarct) was 405.28 ± 27.84 µmol/L, the “LDH1, 2” value ([9]; fifth day after infarct) was 187.94 ± 34.37 µmol/L and the ALT ([9]; first day after infarct) was 0.178 ± 0.028 µmol/L. The AST ([9]; first day after infarct) was 0.254 ± 0.034 µmol/L, the CPK ([9]; first day after infarct) was 322.56 ± 43.79 µmol/L and the “LDH1, 2” value ([9]; first day after infarct) was 248.84 ± 41.10 µmol/L. For the same compound, the ALT ([9]; seventh day after infarct) was 0.24 ± 0.024 µmol/L, the AST ([9]; seventh day after infarct) was 0.225 ± 0.024 µmol/L and the CPK ([9]; seventh day after infarct) was 291.35 ± 18.9 µmol/L. For the same compound, the “LDH1, 2” value ([9]; seventh day after infarct) was 175.5 ± 25.89 µmol/L, the “normalization of the tested blood parameters” value ([9]; conclusion on Table 1) was “quicker normalization of all the tested parameters” and the glycemia (rats with STZ diabetes) was 62%. For the same compound, the “level of malonic dialdehyde (MDA), oxidation stress marker” value (rats with STZ diabetes) was 48.7%, the “level of glutathione (GSH), oxidation stress marker” value (rats with STZ diabetes; result in words) was “does not change” and the “effect on inflammatory state” value [10] was “quicker tissues regeneration, inhibition of apoptosis and quicker symptoms subsidence or remission maintenance”.

For Nn1[nH]c(=O)c2ccccc2c1=O.[Na] [compound III, 2-amino-1,2,3,4-tetrahydrophthalazine-1,4-dione sodium salt], the solubility in water [11] is given as “easily soluble in water”.

For CN(CCOc1ccc(CC2SC(=O)NC2=O)cc1)c1ccccn1 (centres unmarked) [Rosiglytazone, reference compound], the glycemia (rats with STZ diabetes) was 55%, the “level of malonic dialdehyde (MDA), oxidation stress marker” value (rats with STZ diabetes) was 54% and the “level of glutathione (GSH), oxidation stress marker” value (rats with STZ diabetes; in comparison to the healthy rats) was 127%.

For Nc1cccc2c(=O)[nH][nH]c(=O)c12 [luminol, 5-Amino-2,3-dihydrophthalazine-1,4-dione], the solubility in water [11] is given as “poorly soluble in water”.
